Results taken from patent publication US5441944A, “Substituted cyclodextrin sulfates and their uses as growth modulating agents” (The Trustees of the University of Pennsylvania, priority 1992, dated 1995).

Key:
[1] = system: tumor angiogenesis in hamster cheek pouches; details: Shubik et al. 1976, cited from earlier work
capillary growth; tumors = details: cited from earlier work
[2] = system: tumor angiogenesis in rabbit corneas; details: Gross et al. 1981; cited from earlier work
[3] = conductivity measurements in deionized water; format: physicochemical
Excerpt: Conductivity is an accepted method for measuring the degree of ionic substitution and can be used to evidence the addition of a charged group, such as sulfate to a compound. […] Results of conducting measurements obtained in deionized water having a background conductivity of 2.5 (±0.2)×[…] mho/cm are shown in Table I.

[4] = format: physicochemical; details: water
Experimental: The substituted CD sulfates useful in the present invention are highly hydrophilic and therefore very water soluble, with a solubility of at least 20 gm/100 ml in water at 0° C. Without wishing to be bound by theory, we believe that a highly hydrophilic character is important to allow interaction with cellular surfaces. We also believe a very high water solubility of the derivative is an important factor which cooperatively interacts with the inherent complexing ability of the CD structure to provide effective inhibition of angiogenesis with an exogenous steroid, as provided by this invention. We believe that the hydrophilic activity is roughly indicated by the affinity to water, as measured by water solubility. It is important to measure the same at 0° C. since at higher temperatures the most suitable derivatives have solubilities so high that it is difficult to obtain meaningful measurements.

[5] = dye staining analysis for high density sulfate saccharides (Alcian Blue, alumina TLC plate); format: physicochemical; details: 0.8 mg/ml sample, 1 μl spot; 0.5 mg/ml Alcian Blue, 0.25M acetate buffer, 5.6 pH
Experimental: Such complexing behavior has been utilized in histology, for selective staining to indicate high sulfur natural saccharides such as heparin (Snow et al., 1987, Human Pathology 18:506-510 and Dorling, 1969, Med. Lab. Techn. 26:124-130).
The following procedure was used to detect the presence of high density sulfate groups. An alumina TLC plate (Analtech, Newark, Del.) was spotted with a drop (1 μl) of a sample (0.8 mg/ml) to be tested. The spot or spots were dried for 10 minutes at about 60° C. Aqueous solution of 0.5 mg/ml of Alcian Blue (8GX, Aldrich), buffered with 0.25M acetate buffer at 5.6 pH is allowed to rise along the plate up to and past the test spot.

Row | Molecule | inhibition of tumor angiogenesis [2] | Conductivity [3] | other results
1 | C[C@H]1C[C@@H]2[C@H]([C@@H](O)C[C@@]3(C)[C@H]2CC[C@]3(O)C(=O)CO)[C@@]2(C)C=CC(=O)C=C12 [6 α-methyl prednisolone] | – | – | tumor growth [1]: tumor growth was not stopped; suppression of tumor angiogenesis ([1]; under certain conditions): partially suppressed tumor angiogenesis
2 | C[C@]12CCC(=O)C=C1CC[C@@H]1[C@@H]2C(=O)C[C@@]2(C)[C@H]1CC[C@]2(O)C(=O)CO [cortisone, 17 alpha, 21-dihydroxy-4-pregene-3,11,20-trione] | to a lesser extent cortisone, inhibited tumor angiogenesis | – | inhibition of capillary growth (capillary growth; tumors; cortisone by itself): does not have the ability to inhibit capillary growth; tumor growth (capillary growth; tumors; large amounts of cortisone, many other publications): continued growth of tumors
3 | C[C@@H]1C[C@H]2[C@@H]3CCC4=CC(=O)C=C[C@]4(C)[C@@]3(F)[C@@H](O)C[C@]2(C)[C@@]1(O)C(=O)CO [dexamethasone] | inhibited tumor angiogenesis | – | –
4 | C[C@]12CC[C@@H]3c4ccc(O)cc4CC[C@H]3[C@@H]1CC[C@@H]2O [estradiol] | ineffective | – | –
5 | CC(=O)[C@@]1(O)CC[C@H]2[C@@H]3C[C@H](C)C4=CC(=O)CC[C@]4(C)[C@H]3CC[C@@]21C [medroxyprogestrone] | inhibited tumor angiogenesis | – | –
6 | C[C@]12CC[C@H]3[C@@H](CCC4=CC(=O)CC[C@@]43C)[C@@H]1CC[C@@H]2O [testosterone] | ineffective | – | –
7 | OC[C@H]1O[C@@H]2O[C@H]3[C@H](O)[C@@H](O)[C@@H](O[C@H]4[C@H](O)[C@@H](O)[C@@H](O[C@H]5[C@H](O)[C@@H](O)[C@@H](O[C@H]6[C@H](O)[C@@H](O)[C@@H](O[C@H]7[C@H](O)[C@@H](O)[C@@H](O[C@H]8[C@H](O)[C@@H](O)[C@@H](O[C@H]1[C@H](O)[C@H]2O)O[C@@H]8CO)O[C@@H]7CO)O[C@@H]6CO)O[C@@H]5CO)O[C@@H]4CO)O[C@@H]3CO [β-cyclodextrin] | – | immeasurable | –
8 | n-tetrapropoxy-β-cyclodextrin [n-tetrapropoxy β-cyclodextrin] | – | immeasurable | –
9 | n-tetrapropoxy-β-cyclodextrin sulfate | – | 4.5 10^-4 mho/cm per mg/ml | solubility [4]: 37 gm/100 ml H2O; Alcian Blue stain [5]: generate an Alcian Blue stain
10 | β-cyclodextrin tetradecasulfate | – | – | Conductivity (average of 2 samples) ([3]; average of 2 samples): 4.6 10^-4 mho/cm per mg/ml; Alcian Blue stain [5]: generate an Alcian Blue stain
